This note sets out measurements from patent US20140220000A1, “MHC ENGAGEMENT AND CLIP MODULATION FOR THE TREATMENT OF DISEASE” (Scott & White Healthcare, priority 2011, published 2014).

For one assay, the system named is MCF7 cells. As to the kind of experiment: Viability counts of MCF7 cells after B-estradiol treatment (Example 5). Format: cell-based, human. Particulars: 10 nM B-estradiol, about 19 hours after treatment. The procedure: (§1) MCF7 (ATCC (cat# HTB-22)) and MCF7-ADR were grown in 10% FBS RPMI (Gibco RPMI 1640 media cat #21870076) supplemented with Fetal Bovine Serum, L-Glutamine, […], Hepes Buffer, Sodium Pyruvate, and Gentamicin). 1.07*10^6MCF7 cells were plated per well in 2 wells. […] ADR cells were plated per well in 2 wells. The cells were treated with B-estradiol from Sigma (Cat# E2758-250 mg, Lot#110M0138V). In order to prepare a 10 nM final concentration 27.238 mg of B-estradiol was weighed under the hood with a sterile weigh boat and spatula and dissolved in 1 mL of DMSO to make a 0.1M stock, which was then diluted twice: • 1:1000 dilution (1 ul of the 0.1M stock to 999 ul PBS) • 1:100 dilution (10 ul of the 1:000 dilution to 990 ul PBS) 20 ul of the 1:100 diluted solution was added to a final volume of 2 mL per treatment well. The MCF7 and MCF7 ADR were harvested about 19 hours after treatment. The cells were counted and viability is shown below.

The test system of the next assay is MCF7 ADR cells. As to the kind of experiment: Viability counts of MCF7 ADR cells after B-estradiol treatment (Example 5). Format: cell-based, human. As to conditions: 10 nM B-estradiol, about 19 hours after treatment. How it is done:
as §1

Assay [1] has as its system CRL-5822 cells. As to the kind of experiment: Viability counts of CRL-5822 cells after LPS, MKR.4 and Anti MHC Class II treatment (Example 1). Format: cell-based. Particulars: LPS 1 ug/mL, MKR.4 2.5 ug/mL, Anti MHC Class II 5 ug/mL, 24 hours after antibody. How it is done: The media was removed from a flask of CRL-5822 using a sterile glass pipet and vacuum and 1.5 mL of accutase was added to the flask and placed in incubator for 20 minutes. The cells were washed with 3 mL of PBS and transferred to a sterile 15 mL conical tube and centrifuged for 5 minutes @ 1000 rpm. The supernatant was removed with sterile glass pipet and vacuum and the pellet resuspended in 5 mL of PBS. A cell count was performed using the TC-10 automated counter and 10 ul of cell suspension+10 ul of trypan blue was loaded into disposable counting slide and put in the TC-10. The following count was made: Live: 3.54*10^4 cells/mL*5 mL=177,000 cells total & 177,000/9 wells (8 wells in experiment+1 to maintain culture)=19,666 cells/well (flask).
The 5 mL of cell suspension was centrifuged for 5′ at 1000 rpm, the pellet was resuspended in 9 mL of 10% FBS RPMI. 1 mL of the cell suspension was added to a T-25 flask that had 4 mL of media in it and placed in the incubator. After culture 1 mL of the cell suspension was added to each well (8 wells in a labeled 24 well plate). A fresh vial of MKR.4 was resuspended in sterile DMSO. 7 mg of peptide was used to make a 5 mg/mL stock (7 mg/mL=5 mg/mL=1.4 mL of DMSO). The peptide was added into 1.4 mL of DMSO, under the hood to maintain sterility. Once all of the peptide was dissolved, 200 ul aliquots were made. […]

Assay [2] concerns CRL-5822 cells. As to the kind of experiment: Viability counts of CRL-5822 cells after CpG, MKR.4 and Anti MHC Class II treatment (Example 2). It counts as cell-based. As to conditions: CpG 1 ug/mL, MKR.4 2.5 ug/mL, Anti MHC Class II 5 ug/mL, 24 hours after antibody. The procedure:
CRL-5822 were Prepared as Follows: • Removed the media from a flask of CRL-5822 using a sterile glass pipet and vacuum • Added 1.5 mL of accutase to the flask and placed in incubator for 20 minutes • Washed with 3 mL of PBS • Transferred all to a sterile 15 mL conical tube • Centrifuged for 5′ @ 1000 rpm • Removed supernatant with sterile glass pipet and vacuum • Resuspended in 3 mL of PBS • Performed a hemacytometer count indicating: 1.14*10^6 cells total of CRL-5822 cells • 1.14*10^6/8 wells+2 wells for culture maintenance=10 wells • 1.14*10^6/10 wells=[…] cells per well • Centrifuged the 3 mL of cell suspension for 5′ at 1000 rpm • Resuspended pellet in 10 mL of 10% FBS RPMI • 1 mL of this was added to 2 wells in a 12-well plate added 1 mL of fresh 10% FBS RPMI to each well to bring the total volume up to 2 mL.
(§2) 8 wells were set up for the experiment for each cell type (CRL-5822 and C57BL/6) with no treatment, with CpG, MKR.4 peptide, with MKR.4 peptide+CpG and with or without addition of purified Anti Class-II (HLA-DR,DP,DQ) treatment in the amounts listed below.
CRL-5822 • CpG:(x) (1 mg/mL stock)=(1 ug/mL) (2 mL)x=2 ul • MKR.4: (x) (5 mg/mL stock)=(2.5 ug/mL) (2 mL) x=1 ul • Anti MHC Class II: Treat at 5 ug/mL; Stock is at 1 mg/mL; (x) (1 mg/mL)=(5 ug/mL) (2 mL); x=10 μl/well
(§3) CpG was administered to activate the cells and induce CLIP expression. MKR.4 was added to select wells 24 hours after cell activation. The cells were incubated with MKR.4 for 2 hours. Then fresh media with or without Anti MHC Class II was added. 24 hours after Anti MHC Class II was added to the wells viability counts were performed.

For the next assay, the system named is C57BL/6 splenocytes. As to the kind of experiment: Viability counts of C57BL/6 splenocytes after CpG, MKR.4 and Anti MHC Class II treatment (Example 2). It counts as cell-based, mouse. As to conditions: CpG 5 ug/mL, MKR.4 5 ug/mL, Anti MHC Class II 5 ug/mL, 24 hours after antibody. The procedure:
C57BL/6 were Prepared as Follows: • A spleen from a C57BL/6 mouse was placed in a cell strainer in a petri dish with 6 mL of PBS • The spleen was mashed to produce a cell suspension • The PBS splenocyte cell suspension was transferred into a labeled 15 mL conical tube and centrifuged for 5 minutes at 1000 rpm • The pellet was resuspended in 1 mL of PBS • Geys was prepared to lyse the red blood cells • 7 mL of DI H20; • 0.5 mL of Geys B • 0.5 mL of Geys C • weighed out […] of NH4Cl • Mixed the […] of NH4Cl with 2 mL of Geys A • Transferred the dissolved solution to a 15 mL conical tube with the H20, Geys B, and Geys C • 3 mL of the Geys solution was added to the 1 mL of PBS cell suspension, mixed well and placed on ice for 1 minute (frequently inverted solution in tube on ice during the 1 minute) • The mixture was centrifuged for 5 minutes at 1000 rpm, washed with 5 mL of PBS, centrifuged for 5 minutes at 1000 rpm and resuspended in 10 mL of PBS • A hemacytometer count was performed: 99.0*10^6 cells total (9.9*10^6 cells/mL) plate 4*10^6 cells per well*8 wells=32 million; 32*10^6/9.9*10^6=3.23 mL of this suspension needed to obtain 32*10^6 cells • Centrifuged 3.23 mL of the suspension for 5 minutes at 1000 rpm and resuspended the pellet in 8 mL of 5% FBS RPMI • 1 mL of suspension was added to each well (12-well plate) • Added another 2 mL of 5% FBS RPMI to each well to bring the final volume up to 3 mL
as §2
CpG: (x) (1 mg/mL stock)=(5 ug/mL) (3 mL) x=15 ul
MKR.4: (x) (5 mg/mL stock)=(5 ug/mL) (3 mL) x=3 ul
Anti MHC Class II: Treat at 5 ug/mL; Stock is at 1 mg/mL; (x) (1 mg/mL)=(5 ug/mL) (3 mL); x=15 ul/well
as §3

The next assay concerns H69 cells. As to the kind of experiment: Hemacytometer viability counts of H69 cells after CpG, MKR.4 and anti-class II treatment (Example 3). Format: cell-based, human. Particulars: 24 hours after anti-class II. How it is done: Based on cell counts 500,000 H69 cells per well were set up in a 6 well plate-4.0*10^6/2.95*10^6=1.36 mL. The 1.36 mL was added to a new 15 mL conical tube and centrifuged for 5 minutes at 1000 rpm. The pellet was resuspended in 8 mL of H69 media and 1 mL of cell suspension was added to each well. 2 mL of H69 media was added to each well to bring the total volume/well up to 3 mL and the plates were placed in an incubator.
(§4) CpG was administered to activate the cells and induce CLIP expression. 15 uL of 1 mg/mL CpG was added into each CpG treated well. MKR.4 was added to select wells 24 hours after cell activation. The cells were incubated with 3 uL of 5 mg/mL stock MKR.4 in DMSO for 2 hours. Then fresh media with or without Anti MHC Class II was added (5 ul/well of stock at 1 mg/mL). 24 hours after Anti MHC Class II was added to the wells viability counts were performed.

In a further assay the test system is WITT cells. As to the kind of experiment: Hemacytometer viability counts of WITT cells after CpG, MKR.4 and anti-class II treatment (Example 3). Format: cell-based, human. As to conditions: 24 hours after anti-class II. How it is done:
0.59*10^6 cells/mL*5 mL=[…] of WITT cells total were used. The cells were centrifuged at 1000 rpm for 5 minutes and the pellet was resuspended in 9 mL of WITT media. 1 mL of this cell suspension was added to each of […] and a culture flask. Another 2 mL of WITT media was added to each well in the 12 well plate to bring the total volume up to 3 mL. Another 9 mL was added to the T-25 culture flask to bring that total volume up to 10 mL. The plate and flask were placed in the incubator to allow adherence overnight.
as §4

Another assay concerns B cells from C57B/6 mice. As to the kind of experiment: Cell death of B cells isolated from C57B/6 mice (Example 6, FIG. 6A). It counts as cell-based, mouse. Particulars: C57B/6 B cells stimulated with CpG 48 hours, MKR.4 5 μg/mL 1 hour, anti-MHCII 2.5 μg/mL, 24 hours. How it is done: (§5) B cells were isolated from the spleens 12 week old male C57B/6 or CLIP−/− (Invariant Chain deficient) mice (Jackson Labs) using the Miltenyi Biotech B cell isolation kit according to the manufacturer's directions. Cells were incubated with or without CpG-ODN (1 mg/mL SEQ ID NO 9: 5′-[…]-3′, purchased from Invivogen) for 48 hours followed by treatment with 5 μg/mL MKR.4 (5 mg/mL, SEQ ID NO 8: ANS GFR IMA VLA SGG QY). Cells were incubated with MKR.4 for 1 hour and then washed followed by treatment with 2.5 μg/mL anti-MHCII (IA/IE, BD Bioscience). 24 hours after anti-MHCII treatment cells were analyzed for cell death using Acridine Organge/propidium iodide staining measured on the Cellometer (Nexcelom), propidium iodide and foreword Vs. side scatter staining measured on a BD FACS Canto II flow cytometer (BD Bioscience). Data was analyzed using FlowJo software (TreeStar).

Assay [3] relates to B cells from CLIP−/− (Invariant Chain deficient) mice. Kind of assay: Cell death of B cells isolated from CLIP-/- mice (Example 6, FIG. 6B). It counts as cell-based, mouse. Particulars: MKR.4 5 μg/mL, anti-MHCII 2.5 μg/mL, 24 hours. How it is done:
as §5

Regarding `C[C@]12CC[C@@H]3c4ccc(O)cc4CC[C@H]3[C@@H]1CC[C@@H]2O` [B-Estradiol, B-estradiol], in the assay on MCF7 cells, the Dead was 0.11*10^6 and the Live is listed as 0.50*10^6. Besides, in the assay on MCF7 ADR cells, the Dead was 0.07*10^6 and the Live is listed as 0.47*10^6.

In the case of “ANS GFR IMA VLA SGG QY (ANSGFRIMAVLASGGQY) [MKR.4]”, the “Total Dead” value was “Total Dead: 0.07 *10^6” with CRL-5822 cells [1], “Total Dead: 0.08 *10^6” in the assay with CRL-5822 cells [2] and “Total Dead: 0.10 *10^6” in the assay on C57BL/6 splenocytes. For the same compound, the “Total Live” value in the assay on CRL-5822 cells [1] is reported as “Total Live: 0.32 * 10^6”; in the assay on CRL-5822 cells [2], “Total Live: 0.24 * 10^6”; in the assay on C57BL/6 splenocytes, “Total Live: 0.44 * 10^6”. Moreover, the Dead entry in the assay on H69 cells is on record as “Dead: 0.28*10^6”; in the assay on WITT cells, 0.038*10^6. For the same compound, the results for the Live entry in the assay with H69 cells and in the assay on WITT cells were “Live: 1.46*10^6” and 0.93*10^6, respectively. Further, the “percent change in cell death” value is reported as “restores the increase in cell death” with B cells from C57B/6 mice and “no effect on the cell death caused by the MHC class II antibody” in assay [3].

For the compound 5′-tcgtcgttttgtcgttttgtcgtt-3′ [CpG], the “Total Dead” value in the assay on CRL-5822 cells [2] is listed as “Total Dead: 0.07 *10^6”; in the assay with C57BL/6 splenocytes, “Total Dead: 0.08 *10^6”. For the same compound, the “Total Live” value is recorded as “Total Live: 0.35 * 10^6” with CRL-5822 cells [2] and “Total Live: 1.25 * 10^6” with C57BL/6 splenocytes. For the same compound, the Dead result is on record as “Dead: 0.40*10^6” with H69 cells and 0.13*10^6 in the assay on WITT cells. The Live entry in the assay with H69 cells is given as “Live: 1.65*10^6”; with WITT cells, 0.94*10^6.
